ChEMBL document CHEMBL1201862, “PubChem BioAssay data set” (2004)
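96-well plates; 48 h exposure; 5 concentrations. Endpoints by linear interpolation between flanking doses. Not reached: highest tested concentration assigned. The concentration for 50% growth inhibition is given as GI50.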 Activity calls are given as the source filed them. Rule as the data show it: active = GI50 up to about 1.1 µM and inactive = higher.

Legend:
Assay in all cases: inhibition of tumour cell growth, NCI panel, 48 h
[1] = tested on: M14
[2] = tested on: HCT-15
[3] = tested on: SW-620
[4] = tested on: Malme-3M
[5] = tested on: A498
[6] = tested on: ACHN
[7] = tested on: 786-0
[8] = tested on: M19-MEL
[9] = tested on: OVCAR-3
[10] = tested on: NCI-H460
[11] = tested on: SN12C
[12] = tested on: SF-268
[13] = tested on: NCI-H522
[14] = tested on: IGROV-1
[15] = tested on: UACC-257
[16] = tested on: MOLT-4
[17] = tested on: MDA-MB-231
[18] = tested on: Hs-578T
[19] = tested on: MDA-MB-435
[20] = tested on: BT-549

| SMILES | GI50 [1] | GI50 [2] [µM] | GI50 [3] | GI50 [4] | GI50 [5] | GI50 [6] | GI50 [7] | GI50 [8] | GI50 [9] | GI50 [10] | GI50 [11] | GI50 [12] | GI50 [13] | GI50 [14] | GI50 [15] | GI50 [16] | GI50 [17] | GI50 [18] | GI50 [19] | GI50 [20] |
| --- | --- | --- | --- | --- | --- | --- | --- | --- | --- | --- | --- | --- | --- | --- | --- | --- | --- | --- | --- | --- |
| CCCCCCCCCCCCC(Br)C(C)=O (configuration not stated) | > 100 µM (inactive) | > 100 | > 100 µM (inactive) | > 100 µM (inactive) | > 100 µM (inactive) | > 100 µM (inactive) | > 100 µM (inactive) | > 100 µM (inactive) | > 100 µM (inactive) | > 100 µM (inactive) | > 100 µM (inactive) | > 100 µM (inactive) | > 100 µM (inactive) | > 100 µM (inactive) | > 100 µM (inactive) |  |  |  |  |  |
| O=C(N/C(=C\c1ccc([N+](=O)[O-])cc1)c1nc2cc(Cl)ccc2[nH]1)c1ccccc1 | 17.3 µM (inactive) | 13.3 | 19.5 µM (inactive) | 35.1 µM (inactive) |  | 22 µM (inactive) | 17.7 µM (inactive) | 31.6 µM (inactive) | 21.8 µM (inactive) |  | 20.7 µM (inactive) | 18.4 µM (inactive) | 11.9 µM (inactive) | 16.9 µM (inactive) |  | 10.1 µM (inactive) |  |  |  |  |
| COc1ccc(C(C2=C(O)CC(C)OC2=O)C2=C(O)CC(C)OC2=O)cc1 (configuration not stated) | > 100 µM (inactive) | > 100 | > 100 µM (inactive) | > 100 µM (inactive) |  | > 100 µM (inactive) | > 100 µM (inactive) | > 100 µM (inactive) | > 100 µM (inactive) | > 100 µM (inactive) | > 100 µM (inactive) | > 100 µM (inactive) | > 100 µM (inactive) | > 100 µM (inactive) | > 100 µM (inactive) | > 100 µM (inactive) |  |  |  |  |
| COc1ccc2[nH]c3c4c(c5cc(C(C)(C)C)ccc5c3c2c1)C(=O)N(c1ccccc1)C4=O | 54.3 µM (inactive) |  | > 100 µM (inactive) | > 100 µM (inactive) | 24.9 µM (inactive) |  | > 100 µM (inactive) | > 100 µM (inactive) | > 100 µM (inactive) | > 100 µM (inactive) |  | > 100 µM (inactive) | > 100 µM (inactive) | > 100 µM (inactive) | > 100 µM (inactive) | > 100 µM (inactive) |  |  |  |  |
| COC1CCC(OS(C)(=O)=O)C(CO)O1 (configuration not stated) | > 100 µM (inactive) | > 100 | > 100 µM (inactive) | > 100 µM (inactive) |  | > 100 µM (inactive) | > 100 µM (inactive) | > 100 µM (inactive) | > 100 µM (inactive) | > 100 µM (inactive) | > 100 µM (inactive) |  | > 100 µM (inactive) | > 100 µM (inactive) | > 100 µM (inactive) | > 100 µM (inactive) |  |  |  |  |
| CC(C)[C@H](COC(C)(C)C)/N=C/N1CSc2ccccc21 | 36.3 µM (inactive) | 84.9 | 35.4 µM (inactive) |  | 46.1 µM (inactive) | 25.7 µM (inactive) | 49.8 µM (inactive) | 36.6 µM (inactive) | 23 µM (inactive) | 33 µM (inactive) | 28.1 µM (inactive) | 59 µM (inactive) | 31.9 µM (inactive) | 34 µM (inactive) |  | 36.1 µM (inactive) |  |  |  |  |
| O=c1cc(-c2ccccc2)nc(/C=C(\O)c2ccncc2)n1-c1ccccc1 | > 100 µM (inactive) | > 100 | > 100 µM (inactive) | > 100 µM (inactive) | > 100 µM (inactive) | > 100 µM (inactive) | > 100 µM (inactive) | > 100 µM (inactive) | > 100 µM (inactive) | > 100 µM (inactive) | > 100 µM (inactive) | > 100 µM (inactive) | > 100 µM (inactive) | > 100 µM (inactive) | > 100 µM (inactive) |  |  |  |  |  |
| NC1=NN(c2ccccc2)C(=O)C1C(=O)CCC(=O)Nc1cccc(Cl)c1 (configuration not stated) | > 100 µM (inactive) | > 100 | > 100 µM (inactive) | > 100 µM (inactive) | > 100 µM (inactive) | > 100 µM (inactive) | > 100 µM (inactive) | > 100 µM (inactive) | > 100 µM (inactive) | > 100 µM (inactive) | > 100 µM (inactive) | > 100 µM (inactive) | > 100 µM (inactive) | > 100 µM (inactive) | > 100 µM (inactive) |  |  |  |  |  |
| C=CCN(C(C)=O)c1cc(OCc2ccccc2)c2c(c1)c(C)cn2S(=O)(=O)c1ccccc1 | 5.4 µM (inactive) | 4.79 | 5.46 µM (inactive) | 6.58 µM (inactive) | 5.16 µM (inactive) | 4.36 µM (inactive) | 6.21 µM (inactive) |  | 4.15 µM (inactive) | 4.75 µM (inactive) | 5.52 µM (inactive) | 5.37 µM (inactive) | 4.08 µM (inactive) | 10 µM (inactive) | 5.11 µM (inactive) | 2.67 µM (inactive) | 6.98 µM (inactive) | 7.4 µM (inactive) | 5.11 µM (inactive) | 11.4 µM (inactive) |
| Cc1ccc(NC(=O)CC/C(CC(=O)C(C)(C)C)=N\Nc2ccc([N+](=O)[O-])cc2[N+](=O)[O-])cc1C | 0.0129 µM (active) | 41.5 | 46.3 µM (inactive) |  |  | 45.8 µM (inactive) | 79.6 µM (inactive) | 47.5 µM (inactive) | 0.0195 µM (active) | 56.8 µM (inactive) |  | > 100 µM (inactive) |  | 90.6 µM (inactive) | > 100 µM (inactive) | 28.8 µM (inactive) |  |  |  |  |
| COc1cc(C2C(Cl)C(=O)N2NC(=O)Cc2ccccc2)ccc1O (configuration not stated) | > 100 µM (inactive) | > 100 | 68.4 µM (inactive) | > 100 µM (inactive) |  | 93.5 µM (inactive) | 83.2 µM (inactive) | > 100 µM (inactive) | 33.3 µM (inactive) | > 100 µM (inactive) | > 100 µM (inactive) | > 100 µM (inactive) | 21.3 µM (inactive) | > 100 µM (inactive) | > 100 µM (inactive) | 24.6 µM (inactive) |  |  |  |  |
| CCOc1ccc(/C(Cl)=C(\C=O)c2ccc(OC)c(OC)c2)cc1OCC | > 100 µM (inactive) | 28.3 | 83.9 µM (inactive) | 37.5 µM (inactive) |  | 37.1 µM (inactive) | 64.9 µM (inactive) | 33 µM (inactive) | > 100 µM (inactive) | 83.4 µM (inactive) | 44.6 µM (inactive) | 63.8 µM (inactive) | 18.2 µM (inactive) | > 100 µM (inactive) | 32.3 µM (inactive) | 27.9 µM (inactive) |  |  |  |  |
| Cc1cc(C)c2c(n1)S(=O)(=O)N(CCCN1CCN(c3cccc(Cl)c3)CC1)C(C(=O)c1ccccc1)=C2O | 25.6 µM (inactive) | 24.8 | 31.8 µM (inactive) | 64.3 µM (inactive) | 28.8 µM (inactive) | 30.6 µM (inactive) | 19.5 µM (inactive) |  | 22.8 µM (inactive) | 18.5 µM (inactive) | 20 µM (inactive) | 39 µM (inactive) | 24.8 µM (inactive) | 40.3 µM (inactive) | 19.3 µM (inactive) | 7.82 µM (inactive) | 44.1 µM (inactive) | 65.8 µM (inactive) | 27 µM (inactive) | 52.6 µM (inactive) |
| Cc1ccc(NC(=O)NC23CC4CC(CC(F)(C4)C2)C3)cc1 | 95.3 µM (inactive) |  | > 100 µM (inactive) | > 100 µM (inactive) | > 100 µM (inactive) | > 100 µM (inactive) | > 100 µM (inactive) | > 100 µM (inactive) | > 100 µM (inactive) | > 100 µM (inactive) |  |  | 99.5 µM (inactive) | > 100 µM (inactive) | > 100 µM (inactive) | 40.6 µM (inactive) |  |  |  |  |
| COc1ccc(/C=N/N=C(\N)NO)c(Cl)c1O |  | 5.46 | 19.4 µM (inactive) | 28.4 µM (inactive) |  | 14.9 µM (inactive) | 18.4 µM (inactive) | 1.48 µM (inactive) | 4.69 µM (inactive) |  | 27.4 µM (inactive) | 13.2 µM (inactive) | 6.82 µM (inactive) | 44.9 µM (inactive) | 20.2 µM (inactive) | 3.43 µM (inactive) |  |  |  |  |
| C=C(C)C1CC=C(C)C2(C1)OCC(C)(C)C(C)O2 (configuration not stated) | 22.2 µM (inactive) | 16.4 | 19.1 µM (inactive) | 14.5 µM (inactive) | 14.6 µM (inactive) | 18.3 µM (inactive) | 17.6 µM (inactive) |  | 16.1 µM (inactive) | 26.1 µM (inactive) | 18.2 µM (inactive) | 19.8 µM (inactive) | 17.7 µM (inactive) | 22.9 µM (inactive) | 21.1 µM (inactive) | 20.1 µM (inactive) | 21.7 µM (inactive) | 27.9 µM (inactive) | 21.3 µM (inactive) | 17.3 µM (inactive) |
| C/C=C/[C@H]1O[C@@](O)([C@@H](C)[C@H](O)[C@H](C)[C@H]2OC(=O)/C(OC)=C/C(C)=C/[C@@H](C)[C@@H](O)[C@@H](CC)[C@@H](O)[C@H](C)C/C(C)=C/C=C/[C@@H]2OC)C[C@H](OC2CC(O)C(O)C(C)O2)[C@@H]1C (some centres not stated) | < 0.0075 µM (active) | < 0.0075 | < 0.0075 µM (active) | < 0.0075 µM (active) | 5.01 µM (inactive) | < 0.0075 µM (active) | < 0.0075 µM (active) |  | < 0.0075 µM (active) | < 0.0075 µM (active) | 7.78 µM (inactive) | < 0.0075 µM (active) | < 0.0075 µM (active) | < 0.0075 µM (active) | < 0.0075 µM (active) | < 0.0075 µM (active) | < 0.0075 µM (active) | < 0.0075 µM (active) | < 0.0075 µM (active) | < 0.0075 µM (active) |
| Nn1c(SCC(=O)NCc2ccccc2)nc2ccccc2c1=O | 36.6 µM (inactive) | 67.8 | 57 µM (inactive) | 51.2 µM (inactive) | 61.2 µM (inactive) | 40.6 µM (inactive) | 55.6 µM (inactive) |  | 32.3 µM (inactive) | 46.3 µM (inactive) | > 100 µM (inactive) | 38.2 µM (inactive) | 41.7 µM (inactive) | 53.3 µM (inactive) | 58.2 µM (inactive) | 19.1 µM (inactive) | 57.8 µM (inactive) | 57.5 µM (inactive) | 45.8 µM (inactive) | 73.3 µM (inactive) |
